Assay results published in patent publication US20170029355A1, “LABILE ESTERS OF AGROCHEMICALS FOR CONTROLLED RELEASE AND REDUCTION OF OFF-SITE MOVEMENT” (Monsanto Technology LLC, priority 2011, published 2017).
Read-outs that look alike come from different tables or passages of the source.

Experiments:
velvetleaf = assay: Greenhouse post-emergent control of velvetleaf by emulsifiable concentrates (Example 37); format: in vivo; conditions: for pest or weed control at 140 g/ha / pest or weed control at 280 g/ha / pest or weed control at 420 g/ha / pest or weed control at 560 g/ha: Abutilon theophrasti, post-emergence, 504 h; for pest or weed control at 140 g/ha: read-out: % Control of velvetleaf, 140 g/ha; for pest or weed control at 280 g/ha: read-out: % Control of velvetleaf, 280 g/ha; for pest or weed control at 420 g/ha: read-out: % Control of velvetleaf, 420 g/ha; for pest or weed control at 560 g/ha: read-out: % Control of velvetleaf, 560 g/ha
Procedure: The efficacy of some photo-labile ester formulations from Example 28 for post-emergent control of velvetleaf was tested in the greenhouse. All formulations were tested at rates of 140, 280, 420, and 560 g dicamba equivalent per hectare rates and compared to the diglycolamine salt of dicamba (CLARITY®) at the same rates and untreated control plants. The velvetleaf plants were 10-15 cm in height at the time of spraying. Percent control was evaluated three weeks after treatment.
The methodology of Example 29 was used to evaluate the efficacy of several esters of dicamba which convert to dicamba by hydrolysis for post-emergent control of velvetleaf as emulsifiable concentrate formulations.

[1] = In vitro photo-release and hydrolytic release of dicamba in an aqueous medium (Example 36); format: physicochemical; conditions: 0.01 mM (0.005 mM for diesters); for Conversion to Dicamba, Dark, Day 0 / Conversion to Dicamba, Dark, Day 1 / Conversion to Dicamba, Dark, Day 2 / Conversion to Dicamba, Dark, Day 3 / Conversion to Dicamba, Dark, Day 4 / Conversion to Dicamba, Dark, Day 7 / Conversion to dicamba, Dark, Day 10 / Conversion to Dicamba, Dark, Day 14 / Conversion to Dicamba, Dark, Day 21 / Conversion to Dicamba, Dark, Day 28: amber (dark) bottle; for Conversion to Dicamba, Light, Day 0 / Conversion to Dicamba, Light, Day 1 / Conversion to Dicamba, Light, Day 2 / Conversion to Dicamba, Light, Day 3 / Conversion to Dicamba, Light, Day 4 / Conversion to Dicamba, Light, Day 7 / Conversion to dicamba, Light, Day 10 / Conversion to Dicamba, Light, Day 14 / Conversion to Dicamba, Light, Day 21 / Conversion to Dicamba, Light, Day 28: quartz tube
Procedure: This Example describes the determination of photo-lability and hydrolytic lability of dicamba esters in an aqueous medium. 1 mM solutions of the esters were prepared in acetonitrile (or […] solutions of dicamba diesters). The solutions were then diluted with deionized water to a concentration of 0.01 mM (or 0.005 mM for diesters). The solutions were then transferred to quartz tubes and amber bottles and held in a growth chamber by the procedure of Example 26. A 14-hour day was generally used at a constant temperature of 35° C. Hydrolytic activity was assessed by measuring the increase in dicamba concentration after day zero in the amber (dark) bottles. […] Photolysis manifested itself as increased conversion in the quartz tubes compared to the dark control.
This Example provides the results of an aqueous lability test following the protocol of Example 35 for several dicamba esters which convert to dicamba primarily by hydrolysis. As shown by the results in the table below, conversion of the dark controls generally equaled or exceeded conversion in the photolysis solutions.

SMILES | pest or weed control at 140 g/ha (velvetleaf) [%] | pest or weed control at 280 g/ha (velvetleaf) [%] | Conversion to Dicamba, Dark, Day 0 [1] [%] | Conversion to Dicamba, Dark, Day 1 [1] [%] | Conversion to Dicamba, Dark, Day 2 [1] [%] | Conversion to Dicamba, Dark, Day 3 [1] [%] | Conversion to Dicamba, Dark, Day 4 [1] [%] | Conversion to Dicamba, Dark, Day 7 [1] [%] | Conversion to Dicamba, Dark, Day 14 [1] [%] | Conversion to Dicamba, Dark, Day 21 [1] [%] | Conversion to Dicamba, Dark, Day 28 [1] [%] | Conversion to Dicamba, Light, Day 0 [1] [%] | Conversion to Dicamba, Light, Day 1 [1] [%] | Conversion to Dicamba, Light, Day 2 [1] [%] | Conversion to Dicamba, Light, Day 3 [1] [%] | Conversion to Dicamba, Light, Day 4 [1] [%] | Conversion to Dicamba, Light, Day 7 [1] [%] | Conversion to Dicamba, Light, Day 14 [1] [%] | Conversion to Dicamba, Light, Day 21 [1] [%] | Conversion to Dicamba, Light, Day 28 [1] [%] | other results
COc1c(Cl)ccc(Cl)c1C(=O)Oc1ccc(=O)n(CCC=O)n1 [Ester 33a] | 15.8 | 27.5 | 13 | 15 | 18 | 18 | 22 | 21 | 37 | 50 | 55 | 13 | 18 | 20 | 19 | 22 | 23 | 42 | 53 | 57 | pest or weed control at 420 g/ha (velvetleaf): 22.5%; pest or weed control at 560 g/ha (velvetleaf): 30.8%; post-emergent efficacy on velvetleaf compared with the salt, in words (velvetleaf; greenhouse, emulsifiable concentrates): reduced post-emergent efficacy; Conversion to dicamba, Dark, Day 10 [1]: 28%; Conversion to dicamba, Light, Day 10 [1]: 30%
CCOC(=O)CCn1nc(OC(=O)c2c(Cl)ccc(Cl)c2OC)ccc1=O [Ester 35a] | 35.8 | 60 | 19 | 66 | 69 | 68 | 71 | 74 | 70 | 70 | 74 | 19 | 57 | 58 | 58 | 62 | 60 | 64 | 63 | 65 | pest or weed control at 420 g/ha (velvetleaf): 85%; pest or weed control at 560 g/ha (velvetleaf): 87.5%
C=C(C(=O)OCC)C(OC(=O)c1c(Cl)ccc(Cl)c1OC)c1ccccc1[N+](=O)[O-] (stereo not shown) [Ester 31a] |  |  | 16 | 37 | 43 | 43 | 44 | 49 | 51 | 49 | 50 | 16 | 45 | 48 | 46 | 45 | 46 | 51 | 53 | 53 | Conversion to dicamba, Dark, Day 10 [1]: 50%; Conversion to dicamba, Light, Day 10 [1]: 50%
COc1ccc(COC(=O)c2c(Cl)ccc(Cl)c2OC)cc1 [Ester 29a, 4-methoxybenzyl ester of dicamba] |  |  | 27 | 81 | 83 | 83 | 80 | 84 | 85 |  |  | 27 | 75 | 74 | 75 | 74 | 76 | 77 |  |  | pest or weed control at 140 g/ha (velvetleaf; greenhouse, 140 g/ha, Example 37): 30%; pest or weed control at 280 g/ha (velvetleaf; greenhouse, 280 g/ha, Example 37): 55%; pest or weed control at 420 g/ha (velvetleaf; greenhouse, 420 g/ha, Example 37): 74.2%; pest or weed control at 560 g/ha (velvetleaf; greenhouse, 560 g/ha, Example 37): 81.7%
